Biological target: CYP2D6 (Homo sapiens, UniProt P10635)
Test: Inhibition of CYP2D6 in human liver microsomes

Sequence of CYP2D6 (P10635 whole entry): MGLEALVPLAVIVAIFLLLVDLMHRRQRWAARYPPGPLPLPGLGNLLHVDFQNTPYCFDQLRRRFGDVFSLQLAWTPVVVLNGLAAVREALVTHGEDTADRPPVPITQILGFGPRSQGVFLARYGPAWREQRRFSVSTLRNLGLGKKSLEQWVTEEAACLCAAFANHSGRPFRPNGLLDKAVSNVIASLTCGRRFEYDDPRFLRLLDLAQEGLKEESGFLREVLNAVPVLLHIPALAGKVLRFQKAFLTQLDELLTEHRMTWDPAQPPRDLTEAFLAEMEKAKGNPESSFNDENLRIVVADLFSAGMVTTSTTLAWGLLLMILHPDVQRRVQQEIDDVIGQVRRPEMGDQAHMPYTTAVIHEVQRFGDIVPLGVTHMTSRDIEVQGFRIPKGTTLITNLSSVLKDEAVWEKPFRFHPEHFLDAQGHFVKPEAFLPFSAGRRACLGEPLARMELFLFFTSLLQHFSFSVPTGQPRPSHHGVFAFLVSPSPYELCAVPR

Row | IC50 [µM] | SMILES
1 | > 6 | Cc1cc(C)n2nc(CC3C(=O)CC(CCc4ccc(C(C)(C)O)c(F)c4)(C4CCCC4)OC3=O)nc2n1 (configuration not stated) [6-cyclopentyl-3-[(5,7-dimethyl[1,2,4]triazolo[1,5-a]pyrimidin-2-yl)methyl]-6-{2-[3-fluoro-4-(1-hydroxy-1-methylethyl)phenyl]ethyl}-4-hydroxy-5,6-dihydro-2H-pyran-2-one]
2 | > 6 | CCC(C#N)(CC)c1ccc(CCC2(C3CCCC3)CC(=O)C(Cc3nc4nc(C)cc(C)n4n3)C(=O)O2)cc1F (configuration not stated) [2-[4-(2-{2-cyclopentyl-5-[(5,7-dimethyl[1,2,4]triazolo[1,5-a]pyrimidin-2-yl)methyl]-4-hydroxy-6-oxo-3,6-dihydro-2H-pyran-2-yl}ethyl)-2-fluorophenyl]-2-ethylbutanenitrile]
